# Measured values: ChEMBL document CHEMBL1201862, “PubChem BioAssay data set” (2004)
# The source made the active and inactive calls.
# Assays:
# [1] = target: T1, Cytochrome P450 1A2 (Homo sapiens, UniProt P05177);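 further: PubChem cytochrome P450 panel assay, CYP1A2 panel member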
# T1 sequence (P05177 whole entry): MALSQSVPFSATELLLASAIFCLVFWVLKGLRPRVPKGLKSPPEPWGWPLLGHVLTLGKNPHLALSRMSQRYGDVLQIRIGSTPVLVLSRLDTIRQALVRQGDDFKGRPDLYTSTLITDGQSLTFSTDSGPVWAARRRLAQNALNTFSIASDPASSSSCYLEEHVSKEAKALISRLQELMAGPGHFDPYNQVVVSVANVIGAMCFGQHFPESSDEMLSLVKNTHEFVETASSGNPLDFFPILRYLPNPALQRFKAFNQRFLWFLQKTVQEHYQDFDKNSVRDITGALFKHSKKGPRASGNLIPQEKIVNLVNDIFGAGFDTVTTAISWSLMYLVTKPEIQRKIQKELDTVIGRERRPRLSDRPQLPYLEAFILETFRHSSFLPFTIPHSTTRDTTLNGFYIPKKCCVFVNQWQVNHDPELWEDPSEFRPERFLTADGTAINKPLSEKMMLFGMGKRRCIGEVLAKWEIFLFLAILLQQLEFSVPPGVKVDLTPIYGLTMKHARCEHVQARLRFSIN
# [2] = target: Cytochrome P450 2C19 (Homo sapiens, UniProt P33261); experiment: Cytochrome panel assay with activity outcomes. Panel member name: p450-cyp2c19 Compounds with AC50 equal or less than 10 uM are considered active; type: functional
# [3] = target: Cytochrome P450 3A4 (Homo sapiens, UniProt P08684);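 further: CYP3A4 tested as one member of a cytochrome P450 panel screen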
# [4] = NIH3T3 cell viability loss – ATP luminescence, mouse fibroblasts, counter-screen, dose response (AID 2010); type: functional, cell-based;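 further: cells exposed to compound for about 90 hours before reading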
# [5] = Trypanosoma cruzi growth suppression in host cells – NIH3T3 host cells, beta-gal luminescence, confirmation (AID 2044); type: functional, cell-based;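 further: intracellular parasites grown in NIH/3T3 mouse fibroblasts as host cells; luminescent beta-galactosidase reporter signal from transgenic T. cruzi replicating inside host cells; inhibitors lower the luminescence signal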
# [6] = target: Cytochrome P450 2C9 (Homo sapiens, UniProt P11712)
# [7] = tested on: Streptococcus sp. 'group A'; experiment: Streptococcus pyogenes SK(-)GAS viability under kanamycin – luminescence, BacTiterGlo, confirmation, counter-screen for streptokinase expression inhibitor project, dose response (AID 1900); type: functional, organism-based
# [8] = tested on: Streptococcus; experiment: GAS UMAA2166 growth inhibition – luminescence, BacTiterGlo, counter-screen for streptokinase expression inhibitor project, dose response (AID 1915); type: functional, organism-based;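 further: potency for reduction of bacterial viability or growth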
# [9] = Luminescence Cell-Based Dose Response HTS to Identify Inhibitors of 5'UTR Stem-Loop Driven Prion Protein mRNA Translation in H4 Neuroglioblastoma Cells. [Related pubchem assays: 1827 (Project Summary), 1813 (Primary HTS)]; type: functional
# [10] = alpha-synuclein stem-loop luciferase translation blockers – H4 neuroglioma cells, luminescence, confirmation (AID 1988); type: functional, cell-based
# Cytochrome P450 2C9, sequence (P11712 whole entry): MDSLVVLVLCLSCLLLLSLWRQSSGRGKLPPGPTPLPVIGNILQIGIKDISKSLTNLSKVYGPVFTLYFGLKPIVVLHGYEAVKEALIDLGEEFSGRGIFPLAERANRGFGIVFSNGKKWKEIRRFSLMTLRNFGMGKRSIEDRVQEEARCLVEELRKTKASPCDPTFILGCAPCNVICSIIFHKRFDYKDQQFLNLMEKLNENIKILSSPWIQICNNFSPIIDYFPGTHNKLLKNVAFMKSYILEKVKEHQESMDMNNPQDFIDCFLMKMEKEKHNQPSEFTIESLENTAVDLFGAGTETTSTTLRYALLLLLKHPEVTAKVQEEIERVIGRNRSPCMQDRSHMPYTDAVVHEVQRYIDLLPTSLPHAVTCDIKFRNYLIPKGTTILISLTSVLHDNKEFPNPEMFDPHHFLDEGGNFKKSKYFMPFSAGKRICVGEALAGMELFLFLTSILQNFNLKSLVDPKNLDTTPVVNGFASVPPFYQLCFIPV
# Cytochrome P450 3A4, sequence (P08684 whole entry): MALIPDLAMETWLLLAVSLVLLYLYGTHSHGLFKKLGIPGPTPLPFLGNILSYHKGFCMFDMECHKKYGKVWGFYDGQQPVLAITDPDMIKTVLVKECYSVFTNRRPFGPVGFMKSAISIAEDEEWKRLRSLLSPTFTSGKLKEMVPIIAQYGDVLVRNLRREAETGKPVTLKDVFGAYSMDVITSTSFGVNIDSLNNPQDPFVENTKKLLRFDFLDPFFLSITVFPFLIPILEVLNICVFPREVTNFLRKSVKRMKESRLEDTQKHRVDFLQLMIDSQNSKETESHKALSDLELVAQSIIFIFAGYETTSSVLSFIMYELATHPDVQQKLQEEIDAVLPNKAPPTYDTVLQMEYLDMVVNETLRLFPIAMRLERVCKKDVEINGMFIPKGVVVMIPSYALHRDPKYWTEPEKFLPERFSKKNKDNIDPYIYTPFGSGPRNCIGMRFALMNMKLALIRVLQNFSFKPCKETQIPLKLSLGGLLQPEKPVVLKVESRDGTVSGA
# Cytochrome P450 2C19, sequence (P33261 whole entry): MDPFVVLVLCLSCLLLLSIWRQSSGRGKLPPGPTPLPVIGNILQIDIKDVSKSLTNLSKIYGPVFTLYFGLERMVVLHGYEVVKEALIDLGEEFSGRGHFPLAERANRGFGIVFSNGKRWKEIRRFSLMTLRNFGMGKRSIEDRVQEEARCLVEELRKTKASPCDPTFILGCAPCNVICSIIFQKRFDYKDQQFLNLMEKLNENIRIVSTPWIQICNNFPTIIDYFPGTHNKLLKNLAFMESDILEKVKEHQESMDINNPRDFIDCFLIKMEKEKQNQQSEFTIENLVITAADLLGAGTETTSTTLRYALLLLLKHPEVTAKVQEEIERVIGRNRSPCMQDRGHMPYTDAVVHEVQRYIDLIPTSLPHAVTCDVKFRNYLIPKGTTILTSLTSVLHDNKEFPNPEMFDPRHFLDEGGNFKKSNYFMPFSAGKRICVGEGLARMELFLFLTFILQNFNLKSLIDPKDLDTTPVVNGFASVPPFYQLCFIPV
smiles,measurement,setting,value
CCOc1c2ccc(C(=O)NCCCCc3ccccc3)cc2nn1CC,AC50,[1],6.31 µM (inconclusive)
same,AC50,[2]; read-out: AC50,8.91 µM (inconclusive)
CCCCC(=O)Nc1nnc(SCC(=O)NC2CCCC2)s1,AC50,[2]; read-out: AC50,35.5 µM (inconclusive)
CC(=O)OC[C@@H]1O[C@H](C/C=N\OCC[C@H]2C=C[C@H](OC(C)=O)[C@@H](COC(C)=O)O2)C=C[C@@H]1OC(C)=O,AC50,[2],inconclusive
same,AC50,[3],3.16 µM (inconclusive)
CCN(c1ccccc1)S(=O)(=O)c1cc(C(=O)Nc2ccc(Br)cc2)ccc1F,EC50,[4],> 60 µM (not active)
same,EC50,[5],2.66 µM (active)
CNc1cc(-c2ccccc2CN(C)C)ncn1,AC50,[1],31.6 µM (inconclusive)
CC(C)(C)c1cc(Br)c(O)c(CN(Cc2cc(C(C)(C)C)cc(Br)c2O)C2CCCCC2)c1,AC50,[6],3.16 µM (inconclusive)
same,AC50,[1],5.01 µM (inconclusive)
C=C[C@]1(C)C[C@@H](OC(=O)CSCCN(CC)CC)[C@]2(C)C(C)CC[C@]3(CCC(=O)[C@H]32)[C@@H](C)[C@@H]1O (some centres undefined),EC50,[7],< 0.06 µM (active)
same,EC50,[8],0.182 µM (active)
O=C(c1cccc(C(F)(F)F)c1)C1CCCN(Cc2ccc(OCCO)cc2)C1 (centres undefined),EC50,[4],> 30 µM (not active)
same,EC50,[5],0.402 µM (active)
Cc1cc(N2CCN(c3ccccc3)CC2)nc(NCc2ccccc2)n1,EC50,[4],> 30 µM (not active)
same,EC50,[5],0.809 µM (active)
CCN1CCN(Cc2ccc(NC(=O)c3cc(NC(=O)c4cc(-c5ccc(OC)cc5)[nH]n4)cc(OC)c3)cc2C(F)(F)F)CC1,EC50,[7],4.15 µM (active)
same,EC50,[8],7.21 µM (active)
CC(C)Oc1ccc(CSC(=N)N)cc1,AC50,[1],22.4 µM (inconclusive)
same,AC50,[2]; read-out: AC50,5.62 µM (inconclusive)
O=C(NC1CCCCC1)C1CC=CCC1C(=O)OCC(Cl)=C(Cl)Cl (centres undefined),AC50,[1],25.1 µM (inconclusive)
CN(C)CN1C(=O)S/C(=C2/C(=O)N(CN(C)C)c3ccccc32)C1=O,AC50,[1],0.794 µM (inconclusive)
COc1ccccc1CNc1cc(-c2ccccc2Cl)ncn1,AC50,[3],39.8 µM (inconclusive)
COc1nnc(OC)c2ccccc12,AC50,[2]; read-out: AC50,0.0631 µM (inconclusive)
CCOc1c2ccc(C(=O)NCc3ccco3)cc2nn1CC,AC50,[6],10 µM (inconclusive)
same,AC50,[3],31.6 µM (inconclusive)
COc1cccc(CNCCNC(=O)c2nonc2N)c1,AC50,[1],39.8 µM (inconclusive)
Cc1nc2cnc(N3CCN(C)CC3)nc2n(CCc2ccccc2)c1=O,AC50,[3],15.8 µM (inconclusive)
N#CCCn1c(=O)c(-c2ccccc2)nc2cnc(N3CCOCC3)nc21,AC50,[1],10 µM (inconclusive)
COc1ccc(Oc2ncc3nc(C)c(=O)n(CCC#N)c3n2)cc1,AC50,[1],25.1 µM (inconclusive)
CC(C)(C)c1ccccc1OCC(=O)Nc1ccccc1C(=O)NCc1cccnc1,EC50,[4],> 60 µM (not active)
same,EC50,[5],3.61 µM (active)
O=c1cnc2cnc(N3CCNCC3)nc2n1Cc1ccc(F)cc1,AC50,[6],20 µM (inconclusive)
Cn1cccc1C(=O)N1CCC2(CCN(Cc3ccncc3)CC2)CC1,AC50,[1],15.8 µM (inconclusive)
same,AC50,[2]; read-out: AC50,15.8 µM (inconclusive)
same,AC50,[3],12.6 µM (inconclusive)
CC(C)CCn1nnnc1C(c1ccc(F)cc1)N1CCN(C(=O)c2ccco2)CC1 (centres undefined),AC50,[6],11.2 µM (inconclusive)
Cc1c(S(=O)(=O)O)ccc(/N=N\c2c(O)c(C(=O)O)cc3ccccc23)c1Cl,AC50,[1],5.01 µM (inconclusive)
Cc1cccc(NC(=O)c2cc(=O)c3ccccc3o2)n1,AC50,[6],3.16 µM (inconclusive)
same,AC50,[2]; read-out: AC50,14.1 µM (inconclusive)
same,AC50,[3],25.1 µM (inconclusive)
Cc1nc2cnc(N3CCNCC3)nc2n(Cc2ccc(F)cc2)c1=O,AC50,[6],25.1 µM (inconclusive)
same,AC50,[2],inconclusive
CCN1CCN(c2ccc(S(=O)(=O)N3CCCCC3)cc2NC(=O)c2ccc(C)o2)CC1,EC50,[4],> 60 µM (not active)
same,EC50,[5],2.01 µM (active)
CCN(C(=O)COC(=O)c1cc(-c2ccc3cc(OC)ccc3c2)nc2ccccc12)C1CCS(=O)(=O)C1 (centres undefined),EC50,[9],13.9 µM (active)
same,EC50,[10],11 µM (active)
Cc1cc(C)c(C#N)c(SCC(=O)Nc2nnc(-c3ccccc3)s2)n1,EC50,[4],> 30 µM (not active)
same,EC50,[5],> 30 µM (not active)
